In patent publication US10544138B2, “Tricyclic kinase inhibitors of MELK and methods of use” (Dana-Farber Cancer Institute, Inc., priority 2015, dated 2020):
Values joined by “and” are separate entries in the source; they are usually repeats but may differ in a detail not shown here. Equal values may be shown once. “Also recorded” adds a separate entry of the source.

Assays:
[1] = molecular target: Aurora B (Homo sapiens, UniProt Q96GD4); test: Recombinant mitotic kinase assay, Aurora B; type: biochemical; details: recombinant kinases
Chain of Aurora B (Q96GD4 whole entry): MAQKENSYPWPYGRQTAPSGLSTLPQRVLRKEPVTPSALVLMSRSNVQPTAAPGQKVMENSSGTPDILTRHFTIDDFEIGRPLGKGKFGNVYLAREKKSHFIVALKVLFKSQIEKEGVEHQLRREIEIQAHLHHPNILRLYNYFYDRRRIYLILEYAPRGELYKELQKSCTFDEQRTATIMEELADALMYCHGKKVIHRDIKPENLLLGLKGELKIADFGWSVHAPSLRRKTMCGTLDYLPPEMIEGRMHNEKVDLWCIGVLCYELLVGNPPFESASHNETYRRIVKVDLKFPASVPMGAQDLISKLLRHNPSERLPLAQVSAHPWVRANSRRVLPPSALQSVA
Protocol: (§1) […] assays were performed with recombinant protein of the indicated mitotic kinase (left) and AMPK family kinases (right) in the presence of THZ-4-63-1. […] Cells were treated with nocodazole (100 ng/ml) for 18 h or not treated (Asyn., asynchronous). Nocodazole-arrested mitotic cells (M) were isolated via shake-off. The attached cells enriched in G2 phase (G2) were harvested. A portion of the mitotic cells were washed off nocodazole and released into G1 phase after 4 hours of incubation (G1). […] In Panel D, mitotic lysates were prepared from the indicated cells, and treated with λ-phosphatase at 30° C. In Panel E, nocodazole-arrested mitotic cells were treated with increasing concentration of THZ-4-63-1 for 30 min. Cell lysates were subjected to immunoblotting.
(§2) To discover a selective MELK inhibitor, a few molecule scaffolds with the potential of binding to MELK were identified, including 2,4-disubstituted pyrimidines and benzonaphthyridinones. […] To investigate if THZ-4-63-1 confers selective inhibition on MELK, we tested its effect on other mitotic kinases. In assays using recombinant kinases, MELK kinase activity was 20-fold more sensitive to THZ-4-63-1, than that of Aurora A, Aurora B, CDK1, or PLK1 (FIG. 1B).

[2] = system: Aurora kinases; test: Aurora kinase phosphorylation in mitotic cells, immunoblotting; type: cell-based; details: 30 min
Protocol: (§3) Cell lysates were subjected to immunoblotting. […] The fluorescent signals of immunblotting were quantified using Image Studio Lite software (Licor Biosciences, Lincoln, Neb.). The signal of phosphorylated Aurora kinases was normalized to that of loading control (α-tubulin).
Cell lysates were prepared for immunoblotting. In Panels B and C, THZ-4-63-1 inhibits H3T3 phosphorylation in HeLa (B) and U2OS (C) cells. Nocodazole arrested mitotic cells were treated with THZ-4-63-1 at the indicated doses for 30 min. […] Cell lysates were subjected to immunblotting. The signal of H3T3 phosphorylation was normalized to that of α-tubulin (right).
(§4) We next proceeded to test if THZ-4-63-1 inhibits MELK activity in vivo. With a lack of established kinase substrates of MELK during mitosis, we used the auto-phosphorylation of MELK as a surrogate to indicate the activity of MELK. […] We then harvested nocodazole-arrested mitotic cells, and treated cells with increasing concentrations of THZ-4-63-1.
We exposed paclitaxel- or nocodazole-arrested mitotic cells to the individual inhibitor for 30 min in the presence of MG132, and collected lysates for examining signaling involved in chromosome alignment. […] Recent studies unravel a novel role of Aurora B in phosphorylating Haspin^7, a major factor responsible for phosphorylating Histone H3 at Thr3^14. […]

[3] = molecular target: MARK1 (Homo sapiens, UniProt Q9P0L2); test: Recombinant AMPK family kinase assay, MARK1; type: biochemical; details: recombinant kinases
Chain of MARK1 (Q9P0L2 whole entry, species assumed): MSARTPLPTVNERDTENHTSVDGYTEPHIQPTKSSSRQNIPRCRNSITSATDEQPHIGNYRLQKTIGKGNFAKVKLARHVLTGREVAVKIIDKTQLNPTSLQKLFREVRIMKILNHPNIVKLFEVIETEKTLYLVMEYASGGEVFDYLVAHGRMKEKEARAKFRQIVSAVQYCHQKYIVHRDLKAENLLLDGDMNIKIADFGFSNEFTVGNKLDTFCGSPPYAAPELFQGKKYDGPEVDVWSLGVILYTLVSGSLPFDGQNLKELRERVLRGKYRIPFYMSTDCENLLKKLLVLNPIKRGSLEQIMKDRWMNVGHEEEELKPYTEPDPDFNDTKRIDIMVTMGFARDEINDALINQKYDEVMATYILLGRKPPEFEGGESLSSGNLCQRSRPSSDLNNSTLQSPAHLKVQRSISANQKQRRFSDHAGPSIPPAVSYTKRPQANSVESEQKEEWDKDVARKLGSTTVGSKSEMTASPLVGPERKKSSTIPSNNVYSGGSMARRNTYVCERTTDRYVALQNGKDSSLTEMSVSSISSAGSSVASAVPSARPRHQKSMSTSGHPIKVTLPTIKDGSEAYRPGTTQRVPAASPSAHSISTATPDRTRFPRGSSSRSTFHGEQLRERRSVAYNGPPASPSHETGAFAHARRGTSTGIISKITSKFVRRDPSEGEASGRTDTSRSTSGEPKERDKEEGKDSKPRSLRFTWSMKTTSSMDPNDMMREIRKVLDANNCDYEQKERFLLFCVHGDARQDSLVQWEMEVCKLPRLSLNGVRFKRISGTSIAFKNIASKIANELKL
Protocol: as §1, §2

[4] = system: Cyclin B1, MELK, and Aurora B; test: Spindle assembly checkpoint signaling, abundance of mitotic factors by immunoblotting; type: cell-based; details: nocodazole- or paclitaxel-arrested cells
Protocol: (§5) Mitotic cells were treated with THZ-4-63-1 at indicated concentrations for 4 h. Cells were collected for immunoblotting. Panel B contains time-lapse images of U2OS-(H2B-GFP) cells treated with THZ-4-63-1 (5 μM). […] Panel C contains blots showing proteasome-mediated degradation of Cyclin B1, Aurora B and MELK in THZ-4-63-1-induced mitotic slippage. Mitotic cells were treated as in Panel A with THZ-4-63-1 (5 μM), or MG132 (10 μM), or both for 4 h. Panel D contains a graph showing quantification of cell proliferation in the indicated breast cancer cell lines, which were treated with vehicle control or THZ-4-63-1 for one week (Top) and also contains bright-field images acquired from control cells or cells treated with THZ-4-63-1 (111 nM) (Bottom). […] Cells were treated with indicated drugs, and harvested in ten days for quantification of cell growth. The bold curve depicts the theoretic prediction of an additive action between paclitaxel and THZ-4-63-1.
In Panel A, paclitaxel-arrested cells were treated with THZ-4-63-1 at indicated concentrations for 4 h. Cells were collected for immunoblotting. In Panel B, nocodazole- (top) or paclitaxel-arrested mitotic cells were treated with vehicle control or THZ-4-63-1 (5 μM) for increasing time. Cell lysates were collected for immunoblotting. […]

[5] = system: MDA-MB-468; test: Cell growth with paclitaxel combination in MDA-MB-468; type: cell-based, human; details: THZ-4-63-1 33.3 or 66.6 nM plus paclitaxel 2 nM
Protocol: as §5
Because microtubule-targeting chemotherapy is the mainstay of treatment for many types of cancer including basal-like breast cancer, we asked if MELK inhibition could combine with drugs that impair microtubule dynamics. […]

[6] = molecular target: CDK1 (Homo sapiens, UniProt P06493); test: Recombinant mitotic kinase assay, CDK1; type: biochemical; details: recombinant kinases
Chain of CDK1 (P06493 whole entry, species assumed): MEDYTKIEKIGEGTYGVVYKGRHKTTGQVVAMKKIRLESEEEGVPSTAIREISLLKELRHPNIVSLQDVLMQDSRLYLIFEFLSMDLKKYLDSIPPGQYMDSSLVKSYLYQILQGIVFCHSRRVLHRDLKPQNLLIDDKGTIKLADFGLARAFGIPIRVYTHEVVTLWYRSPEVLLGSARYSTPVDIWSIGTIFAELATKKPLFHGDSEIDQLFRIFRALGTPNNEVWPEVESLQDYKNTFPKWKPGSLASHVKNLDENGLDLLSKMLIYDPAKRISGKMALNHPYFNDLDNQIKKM
Chain of CDK1 (P14635 whole entry partner, species assumed): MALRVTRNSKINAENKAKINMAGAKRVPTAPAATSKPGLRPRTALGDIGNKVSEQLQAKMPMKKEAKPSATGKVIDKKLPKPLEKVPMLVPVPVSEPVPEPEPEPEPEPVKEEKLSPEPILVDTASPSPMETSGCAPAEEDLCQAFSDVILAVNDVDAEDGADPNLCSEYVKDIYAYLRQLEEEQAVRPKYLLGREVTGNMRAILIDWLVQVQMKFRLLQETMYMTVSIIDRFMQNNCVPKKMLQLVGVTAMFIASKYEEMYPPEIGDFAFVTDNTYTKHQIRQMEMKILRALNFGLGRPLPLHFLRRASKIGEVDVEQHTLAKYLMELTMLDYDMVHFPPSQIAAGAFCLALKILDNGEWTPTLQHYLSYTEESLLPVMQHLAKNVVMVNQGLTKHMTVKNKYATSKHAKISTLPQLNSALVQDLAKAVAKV
Protocol: as §1, §2

[7] = molecular target: T1, MELK (Homo sapiens, UniProt Q14680); test: Electrophoretic mobility (auto-phosphorylation) of MELK in nocodazole-arrested mitotic cells, immunoblotting; type: cell-based; details: nocodazole-arrested mitotic cells (HeLa, MDA-MB-231), 30 min, increasing concentration
T1 sequence (Q14680 whole entry): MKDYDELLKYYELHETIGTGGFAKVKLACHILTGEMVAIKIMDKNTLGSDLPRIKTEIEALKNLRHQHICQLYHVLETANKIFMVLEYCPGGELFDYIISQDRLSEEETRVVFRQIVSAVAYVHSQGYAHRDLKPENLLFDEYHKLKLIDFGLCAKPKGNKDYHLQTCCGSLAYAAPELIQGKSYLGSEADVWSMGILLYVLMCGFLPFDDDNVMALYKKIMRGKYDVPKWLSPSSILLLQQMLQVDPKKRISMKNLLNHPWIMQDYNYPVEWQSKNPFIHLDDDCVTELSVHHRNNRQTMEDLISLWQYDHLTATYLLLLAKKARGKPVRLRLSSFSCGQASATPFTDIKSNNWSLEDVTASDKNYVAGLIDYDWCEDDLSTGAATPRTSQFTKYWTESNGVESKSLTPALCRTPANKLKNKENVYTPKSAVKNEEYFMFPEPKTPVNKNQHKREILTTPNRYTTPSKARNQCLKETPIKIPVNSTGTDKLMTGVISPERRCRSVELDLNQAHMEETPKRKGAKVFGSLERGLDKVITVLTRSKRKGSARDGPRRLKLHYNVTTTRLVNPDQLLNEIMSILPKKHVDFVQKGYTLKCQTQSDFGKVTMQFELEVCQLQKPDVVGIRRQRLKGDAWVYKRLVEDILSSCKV
Protocol: as §1, §3, §4

[8] = molecular target: PLK1 (Homo sapiens, UniProt P53350); test: Recombinant mitotic kinase assay, PLK1; type: biochemical; details: recombinant kinases
Chain of PLK1 (P53350 whole entry, species assumed): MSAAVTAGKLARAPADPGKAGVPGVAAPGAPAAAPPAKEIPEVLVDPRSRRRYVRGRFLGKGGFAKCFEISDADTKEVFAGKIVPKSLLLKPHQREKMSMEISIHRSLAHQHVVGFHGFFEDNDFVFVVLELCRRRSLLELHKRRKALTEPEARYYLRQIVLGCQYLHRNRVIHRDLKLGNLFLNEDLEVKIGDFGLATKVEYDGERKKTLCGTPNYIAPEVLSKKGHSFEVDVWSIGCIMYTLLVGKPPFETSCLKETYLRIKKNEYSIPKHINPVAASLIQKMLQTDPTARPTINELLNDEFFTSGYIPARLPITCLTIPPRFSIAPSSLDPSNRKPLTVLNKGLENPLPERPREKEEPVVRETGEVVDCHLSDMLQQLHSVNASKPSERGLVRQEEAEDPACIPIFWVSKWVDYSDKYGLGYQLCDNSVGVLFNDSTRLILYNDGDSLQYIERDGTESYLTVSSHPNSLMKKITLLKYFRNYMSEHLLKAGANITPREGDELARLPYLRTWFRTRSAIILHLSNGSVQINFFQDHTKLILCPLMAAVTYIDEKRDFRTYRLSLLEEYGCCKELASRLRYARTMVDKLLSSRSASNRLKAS
Protocol: as §1, §2

[9] = molecular target: T1, MELK; test: Z′-LYTE biochemical assay, MELK inhibition; set-up: purchased Life Technologies; details: 25 uM ATP concentration; read-out: MELK IC50 as determined by Z′-LYTE biochemical assay
Protocol: The invention also provides methods for inhibiting MELK, comprising contacting MELK with a compound of the invention in an amount effective to inhibit MELK. In certain embodiments, the method is conducted in vitro. In certain embodiments, the method is conducted in vivo. Inhibition of MELK can be determined by the Z′-LYTE® biochemical assay from Life Technologies (Life Technologies Z′-LYTE® Screening Protocol and Assay Conditions, June 2012, incorporated herein by reference).
Generally, IC50 against MELK was determined by Z′-LYTE® biochemical assay and are measured in nM at 25 uM ATP concentration.

MELK kinase activity more sensitive than that of Aurora B [1]: 20 fold
Selectivity for MELK over MARK1 [3]: preferentially targets MELK
MELK kinase activity more sensitive than that of CDK1 [6]: 20 fold
MELK kinase activity more sensitive than that of PLK1 [8]: 20 fold
IC50 [9]: 10.8 nM and 10.5 nM
SMILES: CN(C)Cc1ccc(-n2c(=O)ccc3cnc4ccc(-c5cc(Cl)c(O)c(Cl)c5)cc4c32)cc1 [THZ-4-63-1]
Phosphorylation of Aurora kinases [2]: lack of obvious inhibition; also recorded: did not inhibit
Protein amount of mitotic factors (Cyclin B1, MELK, Aurora B) [4]: efficiently reduced the protein amount of these mitotic factors
Inhibition of cell growth, combined with paclitaxel [5]: ≥ 80%
Electrophoretic mobility of mitotic MELK [7]: increases the electrophoretic mobility of mitotic MELK; also recorded: readily altered the mobility shift in a dose-dependent manner
